The source of these data is patent publication US9789082B2, “Somatostatin receptor subtype 4 (SSTR4) agonists” (Centrexion Therapeutics Corporation, priority 2013, dated 2017).

Structures are written as SMILES. Where two headings read alike, the source gives them in different places. A value given as a limit tells only on which side of the number the result lay.

For data set [1], the target named is human SSTR4 (Homo sapiens (Human), UniProt P31391). Briefly: Radioligand binding assay, CHO cell membranes expressing recombinant human SSTR4. The source says: (§1) Radioligand Binding Assays
Sequence of human SSTR4 (P31391 whole entry): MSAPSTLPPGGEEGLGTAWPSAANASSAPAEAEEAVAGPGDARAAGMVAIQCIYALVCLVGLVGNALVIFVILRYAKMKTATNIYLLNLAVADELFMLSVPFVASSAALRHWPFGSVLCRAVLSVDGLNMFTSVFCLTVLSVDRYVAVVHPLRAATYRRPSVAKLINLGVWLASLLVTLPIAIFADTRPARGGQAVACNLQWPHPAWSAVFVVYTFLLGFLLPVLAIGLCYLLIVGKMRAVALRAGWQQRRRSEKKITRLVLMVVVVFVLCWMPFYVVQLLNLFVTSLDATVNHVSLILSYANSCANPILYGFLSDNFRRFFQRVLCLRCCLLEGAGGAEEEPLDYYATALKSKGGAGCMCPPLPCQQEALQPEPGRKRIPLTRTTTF
(§2) Method Description for Binding Assays with Human Somatostatin Receptors by Use of CHO Cell Membranes Expressing Recombinant Human SSTR1 or Human SSTR2 or Human SSTR3 or Human SSTR4 or Human SSTR5
(§3) Receptor binding assays refer to a technique in which labeled receptor ligands are used to detect binding to a receptor. In competition experiments test compounds, which are not labeled, compete with the binding side of a labeled ligand. The displacement of the labeled ligand by the test compound leads to a decreased signal.
(§4) For the binding experiments 200 μL of membrane homogenate from one of the following protein amounts is used: hSSTR1 (40 μg/well); hSSTR2 (25 μg/well); hSSTR3 (1.5 μg/well); hSSTR4 (0.5 μg/well); hSSTR5 (25 μg/well). […] The incubation is terminated by filtration with ice cold NaCl 0.9% through polyethyleneimine treated (0.3%) GF/B glass fiber filters using a cell harvester. The protein-bound radioactivity is measured in a suitable reader. The non-specific binding is defined as radioactivity bound in the presence of 1 μM Somatostatin-14 during the incubation period.
(§5) The analysis of the concentration-binding curves is performed by computer-assisted nonlinear least square curve fitting method using the model of one receptor binding site.
(§6) Selectivity data was obtained with the aid of the above described radioligand binding assays.

Data set [2] addresses human SSTR2 (Homo sapiens (Human), UniProt P30874). Briefly: Radioligand binding assay, CHO cell membranes expressing recombinant human SSTR2.
Excerpt: as §1, §2, §3, §4, §5, §6

Data set [3] deals with human SSTR3 (Homo sapiens (Human), UniProt P32745). In words: Radioligand binding assay, CHO cell membranes expressing recombinant human SSTR3.
Sequence of human SSTR3 (P32745 whole entry): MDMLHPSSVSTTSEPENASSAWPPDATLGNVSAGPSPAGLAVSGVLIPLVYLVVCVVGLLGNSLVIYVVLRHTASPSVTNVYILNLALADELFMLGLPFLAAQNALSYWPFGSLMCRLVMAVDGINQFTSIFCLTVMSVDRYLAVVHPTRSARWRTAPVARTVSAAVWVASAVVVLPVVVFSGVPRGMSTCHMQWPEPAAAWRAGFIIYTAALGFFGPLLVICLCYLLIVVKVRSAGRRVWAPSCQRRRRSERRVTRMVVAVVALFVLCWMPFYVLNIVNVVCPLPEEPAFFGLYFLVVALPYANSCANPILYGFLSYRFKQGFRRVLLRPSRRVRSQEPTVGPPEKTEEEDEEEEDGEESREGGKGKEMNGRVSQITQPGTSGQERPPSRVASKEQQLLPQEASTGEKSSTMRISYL
Excerpt: as §1, §2, §3, §4, §5, §6

The target in data set [4] is human SSTR1 (Homo sapiens (Human), UniProt P30872). In words: Radioligand binding assay, CHO cell membranes expressing recombinant human SSTR1.
Sequence of human SSTR1 (P30872 whole entry): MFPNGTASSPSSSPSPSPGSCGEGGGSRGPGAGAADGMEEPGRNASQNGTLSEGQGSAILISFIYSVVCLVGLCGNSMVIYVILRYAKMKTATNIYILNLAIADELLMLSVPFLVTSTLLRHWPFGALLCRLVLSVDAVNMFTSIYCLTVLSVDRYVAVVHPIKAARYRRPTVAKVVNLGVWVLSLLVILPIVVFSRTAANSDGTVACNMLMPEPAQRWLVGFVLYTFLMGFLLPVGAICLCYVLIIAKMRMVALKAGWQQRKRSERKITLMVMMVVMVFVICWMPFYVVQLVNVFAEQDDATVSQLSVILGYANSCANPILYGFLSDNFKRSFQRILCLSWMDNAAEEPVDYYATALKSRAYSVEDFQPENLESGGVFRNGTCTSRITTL
Excerpt: as §1, §2, §3, §4, §5, §6

Data set [5] concerns the target human Somatostatin 4 receptor (SSTR4) (Homo sapiens (Human), UniProt P31391). Briefly: cAMP assay with human somatostatin 4 receptor (hSSTR4 expressing H4 cells). It counts as cell-based. A general note: Cyclic AMP is a second messenger, typically raised through Gs and lowered through Gi signalling.
Data set [6] concerns the target human SSTR5 (Homo sapiens (Human), UniProt P35346). In words: Radioligand binding assay, CHO cell membranes expressing recombinant human SSTR5.
Excerpt: as §1, §2, §3, §4, §5, §6

Data set [7] is described as follows: Metabolic stability in pooled human liver microsomes (half-life). It is filed as in vitro ADME. The settings on record: pooled human liver microsomes, pH 7.6, 37° C., 1 μM test compound, read-out: Half-life t1/2. A general note: Liver microsomes are vesicles of endoplasmic reticulum, rich in cytochrome P450 enzymes.
The mark [8] stands for this setting: cAMP assay, read-out: SSTR4 agonism EC50.

Sequence of human SSTR2 (P30874 whole entry): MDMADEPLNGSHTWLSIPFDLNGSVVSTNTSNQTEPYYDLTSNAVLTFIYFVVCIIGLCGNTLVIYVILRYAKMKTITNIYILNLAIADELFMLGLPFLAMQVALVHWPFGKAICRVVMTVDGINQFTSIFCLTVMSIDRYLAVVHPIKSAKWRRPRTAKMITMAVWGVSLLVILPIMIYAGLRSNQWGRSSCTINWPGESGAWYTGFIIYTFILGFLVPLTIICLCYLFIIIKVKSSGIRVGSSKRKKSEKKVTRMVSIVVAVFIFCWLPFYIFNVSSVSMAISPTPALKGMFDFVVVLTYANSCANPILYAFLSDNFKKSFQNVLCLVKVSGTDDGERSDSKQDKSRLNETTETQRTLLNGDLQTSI
Sequence of human Somatostatin 4 receptor (SSTR4) (P31391 whole entry): as the sequence (P31391 whole entry) above
Sequence of human SSTR5 (P35346 whole entry): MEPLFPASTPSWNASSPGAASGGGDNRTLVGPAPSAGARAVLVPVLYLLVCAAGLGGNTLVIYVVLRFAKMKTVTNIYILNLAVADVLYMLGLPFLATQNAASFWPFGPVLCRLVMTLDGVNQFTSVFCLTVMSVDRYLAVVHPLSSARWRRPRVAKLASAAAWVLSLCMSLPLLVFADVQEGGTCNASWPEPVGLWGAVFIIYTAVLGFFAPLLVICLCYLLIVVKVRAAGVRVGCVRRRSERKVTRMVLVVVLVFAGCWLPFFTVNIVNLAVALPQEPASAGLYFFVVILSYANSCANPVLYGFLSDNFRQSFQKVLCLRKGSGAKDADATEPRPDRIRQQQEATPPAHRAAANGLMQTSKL

One may read the Ki as the equilibrium dissociation constant of an inhibitor or competing ligand from its target. By EC50 is commonly meant the concentration needed to bring the measured effect to its halfway point. Turning to `Cc1cccnc1C(C)(C)NC(=O)[C@H]1[C@@H]2CNC[C@@H]21.Cl.Cl` [Example 25], the inhibitory constant (Ki) in data set [1] was 114 nM; in data set [2] it was above 9610 nM; in data set [3] it was above 8640 nM; in data set [4], above 8960 nM; in data set [6] it was above 9860 nM. The compound also yielded an EC50 in data set [5] (SSTR4 agonism EC50, cAMP assay) of 14.8 nM. In addition, in data set [7], the half-life at 1 μM is above 2.17 h.
Take `Cc1cc2cccnc2c(C(C)(C)NC(=O)[C@H]2[C@@H]3CNC[C@@H]32)n1` [Example 78]: the inhibition constant (Ki) in data set [1] was 97.2 nM; in data set [2], above 9630 nM; in data set [3], above 8710 nM; in data set [4] it was 6640 nM; in data set [6], above 9860 nM. The 50% effective concentration (EC50) in data set [5] (setting [8]) was determined as 3.2 nM. In addition, in data set [7], the half-life at 1 μM is above 2.17 h.
With `CC(C)(NC(=O)[C@H]1[C@@H]2CNC[C@@H]21)c1ccnc2ccccc12.Cl` [Example 21], the Ki was 10.8 nM in data set [1]; above 9590 nM in data set [2]; above 8580 nM in data set [3]; above 8910 nM in data set [4]; above 9850 nM in data set [6]. Further, in data set [5] (setting [8]), the EC50 stood at 0.7 nM. The half-life at 1 μM in data set [7] was above 2.17 h.
Turning to `Cc1cccn2c(C(C)(C)NC(=O)[C@H]3[C@@H]4CNC[C@@H]43)ncc12.Cl` [Example 126], the Ki in data set [1] was 3 nM; in data set [2] it was above 9630 nM; in data set [3], above 8710 nM; in data set [4], 6630 nM; in data set [6] it was above 9860 nM. This compound showed an EC50 in data set [5] (SSTR4 agonism EC50, cAMP assay) of 0.4 nM. Moreover, the half-life at 1 μM in data set [7] is above 2.17 h.
In the case of `Cc1ncc(C(C)(C)NC(=O)[C@H]2[C@@H]3CNC[C@@H]32)c2ccccc12` [Example 80], the inhibition constant Ki is 1.2 nM in data set [1]; above 9630 nM in data set [2]; above 8710 nM in data set [3]; 508 nM in data set [4]; above 9860 nM in data set [6]. The concentration for a half-maximal effect (EC50) in data set [5] (setting [8]) came out at 0.3 nM. In data set [7], the half-life at 1 μM is above 2.17 h.
With `Cc1ccccc1OCC(C)(C)NC(=O)[C@H]1[C@@H]2CNC[C@@H]21.Cl` [Example 40], the Ki in data set [1] is 37.1 nM; in data set [2] it was above 9600 nM; in data set [3] it was above 8630 nM; in data set [4] it was above 9760 nM; in data set [6], above 9850 nM. Besides, in data set [5] (setting [8]), the EC50 turned out to be 5 nM. Further, the half-life at 1 μM in data set [7] is above 2.17 h.
Take `Cc1cccn2c(C(C)(C)NC(=O)[C@H]3[C@@H]4CNC[C@@H]43)nc(C3CC3)c12` [Example 128]: the Ki in data set [1] is 7.6 nM; in data set [2], above 9630 nM; in data set [3] it was 6180 nM; in data set [4], 1100 nM; in data set [6], above 9860 nM. Moreover, the EC50 in data set [5] (setting [8]) came to 0.4 nM. Moreover, in data set [7], the half-life at 1 μM is above 2.17 h.
With `Cc1nc(C(C)(C)NC(=O)[C@H]2[C@@H]3CNC[C@@H]32)c2ccccc2n1` [Example 138], the Ki in data set [1] was 70.3 nM; in data set [2] it was above 9630 nM; in data set [3], above 8710 nM; in data set [4], 7360 nM; in data set [6], above 9860 nM. In data set [5] (setting [8]), the EC50 amounted to 4.3 nM. Besides, the half-life at 1 μM in data set [7] was above 2.17 h.
